The results in this text go back to US12421218B2, “Substituted pyrazine-carboxamide derivatives” (Boehringer Ingelheim International GmbH, priority 2022, dated 2025).

The assay addresses human metabotropic Glutamate 4 receptor (mGluR4) (Homo sapiens (Human), UniProt Q14833). The experiment in a line: Assay A: In vitro testing of mGluR4 potency (cAMP HTRF, glutamate/forskolin stimulated). The format is cell-based. The following applies: HEK293 cells overexpressing human mGluR4; 10 uM L-glutamic acid, 1 uM forskolin. As to the method: A. In Vitro Testing of mGluR4 Potency
The in vitro activity of the compounds according to the invention may be investigated as follows:
The HEK293 cell overexpressing the human metabotropic Glutamate 4 receptor are thawed at 37° C. and immediately diluted with cell culture medium. After centrifugation, the cell pellet is re-suspended in medium and then distributed from a stirred spinner flask into the wells of the assay plate. The plates are incubated for one hour at room temperature before they are incubated for 24 hours at 37° C./5% CO2. After washing the cells in the plate three times with 80 uL HBSS/HEPES buffer (10 uL buffer remained in the wells after washing), 5 uL per well of compounds diluted in HBSS/HEPES buffer containing 0.2% BSA (final concentration: 0.1%) and 1 mM IBMX (final concentration: 0.5 mM) are added to the wells of the assay plate. Thereafter 5 uL per well of L-Glutamic acid (final concentration: 10 uM), forskolin (final concentration: 1 uM) and 1 mM IBMX (final concentration: 0.5 mM) dissolved in HBSS/HEPES buffer containing 0.2% BSA (final concentration: 0.1%) are added to the assay plate (final DMSO concentration: 1%). […] The emission at 615 nm and 665 nm (Excitation wavelength: 320 nm) are measured on the EnVision™ reader (PerkinElmer). The ratio between the emission at 665 nm and 615 is calculated by the reader. […]

Broadly, the IC50 is the concentration needed to halve the response being measured. A higher IC50 goes with lower potency.

Chain of human metabotropic Glutamate 4 receptor (mGluR4) (Q14833 33-912): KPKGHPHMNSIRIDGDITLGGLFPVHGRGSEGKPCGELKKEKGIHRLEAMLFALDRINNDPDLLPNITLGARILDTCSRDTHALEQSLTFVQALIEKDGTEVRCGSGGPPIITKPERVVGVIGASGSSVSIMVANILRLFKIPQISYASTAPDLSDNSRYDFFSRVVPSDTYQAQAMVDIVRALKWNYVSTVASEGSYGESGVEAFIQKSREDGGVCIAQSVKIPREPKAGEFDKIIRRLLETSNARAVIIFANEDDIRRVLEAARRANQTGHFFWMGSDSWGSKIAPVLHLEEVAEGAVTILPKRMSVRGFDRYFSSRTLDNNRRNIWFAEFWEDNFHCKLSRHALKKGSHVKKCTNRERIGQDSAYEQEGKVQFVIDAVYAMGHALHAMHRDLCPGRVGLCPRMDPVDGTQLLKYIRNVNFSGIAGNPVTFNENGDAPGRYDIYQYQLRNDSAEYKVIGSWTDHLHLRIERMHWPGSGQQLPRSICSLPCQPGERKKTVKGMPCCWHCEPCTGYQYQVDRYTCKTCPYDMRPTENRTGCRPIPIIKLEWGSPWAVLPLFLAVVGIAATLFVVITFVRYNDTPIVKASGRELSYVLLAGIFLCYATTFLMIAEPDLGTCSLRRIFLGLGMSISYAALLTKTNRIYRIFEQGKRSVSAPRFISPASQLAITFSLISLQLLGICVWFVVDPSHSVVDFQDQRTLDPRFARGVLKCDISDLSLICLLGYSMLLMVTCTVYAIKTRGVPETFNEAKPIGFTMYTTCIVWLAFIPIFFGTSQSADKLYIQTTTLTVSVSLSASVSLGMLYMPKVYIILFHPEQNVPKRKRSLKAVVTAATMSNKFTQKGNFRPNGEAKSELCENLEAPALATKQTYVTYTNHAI

In turn, `CCn1c([C@@H](NC(=O)c2cnc(C(F)F)cn2)C(C)C)nc2cc(F)ccc21` [Example 59, 5-(difluoromethyl)-N-[(1S)-1-(1-ethyl-5-fluoro-1H-1,3-benzodiazol-2-yl)-2-methylpropyl]pyrazine-2-carboxamide] had an IC50 of 4 nM.
